Data from PubChem BioAssay (NCI).
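The concentration for 50% growth inhibition is given as GI50. At the TGI there is no net growth.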

Experiments:
Assay in all cases: inhibition of tumour cell growth, NCI panel, 384-well format
[1] = test system: 786-0 renal
[2] = test system: A498 renal
[3] = test system: A549 NSCLC
[4] = test system: ACHN renal
[5] = test system: BT-549 breast
[6] = test system: CAKI-1 renal
[7] = test system: CCRF-CEM leukemia
[8] = test system: COLO 205 colon
[9] = test system: DU-145 prostate
[10] = test system: EKVX NSCLC
[11] = test system: HCC-2998 colon
[12] = test system: HCT-116 colon
[13] = test system: HCT-15 colon
[14] = test system: HL-60(TB) leukemia
[15] = test system: HOP-62 NSCLC
[16] = test system: HOP-92 NSCLC
[17] = test system: HS 578T breast
[18] = test system: HT29 colon
[19] = test system: IGROV1 ovarian
[20] = test system: K-562 leukemia
[21] = test system: KM12 colon
[22] = test system: LOX IMVI melanoma
[23] = test system: M14 melanoma
[24] = test system: MALME-3M melanoma
[25] = test system: MCF7 breast
[26] = test system: MDA-MB-231 breast
[27] = test system: MDA-MB-435 melanoma
[28] = test system: MDA-MB-468 breast
[29] = test system: MOLT-4 leukemia
[30] = test system: NCI-H226 lung
[31] = test system: NCI-H23 lung
[32] = test system: NCI-H322M lung
[33] = test system: NCI-H460 NSCLC
[34] = test system: NCI-H522 lung
[35] = test system: NCI/ADR-RES ovarian
[36] = test system: OVCAR-3 ovarian
[37] = test system: OVCAR-4 ovarian
[38] = test system: OVCAR-5 ovarian
[39] = test system: OVCAR-8 ovarian
[40] = test system: PC-3 prostate
[41] = test system: RPMI-8226 leukemia
[42] = test system: RXF 393 renal
[43] = test system: SF-268 CNS
[44] = test system: SF-295 CNS
[45] = test system: SF-539 CNS
[46] = test system: SK-MEL-2 melanoma
[47] = test system: SK-MEL-28 melanoma
[48] = test system: SK-MEL-5 melanoma
[49] = test system: SK-OV-3 ovarian
[50] = test system: SN12C renal
[51] = test system: SNB-19 CNS
[52] = test system: SNB-75 CNS
[53] = test system: SR leukemia
[54] = test system: SW-620 colon
[55] = test system: T-47D breast
[56] = test system: TK-10 renal
[57] = test system: U251 glioblastoma
[58] = test system: UACC-257 melanoma
[59] = test system: UACC-62 melanoma
[60] = test system: UO-31 renal

Question: Which GI50 [1] does the source give for `CC(C)(C)C[C@H]1N[C@@H](C(=O)NC2CCC(O)CC2)[C@H](c2cccc(Cl)c2F)[C@@]12C(=O)Nc1cc(Cl)ccc12` (stereo not given in full) here?
Answer: Its GI50 is 8.2 µM.

Question: And the TGI [1]?
Answer: Its TGI is 21.1 µM.

Question: And the GI50 [2]?
Answer: Its GI50 is 0.211 µM.

Question: And the TGI [2]?
Answer: Its TGI is 3.41 µM.

Question: What about the GI50 [3] of the same compound?
Answer: Its GI50 is 0.5 µM.

Question: And the TGI [3]?
Answer: Its TGI is 11.9 µM.

Question: What about the GI50 [4] of the same compound?
Answer: The GI50 was 0.218 µM.

Question: What about the TGI [4] of the same compound?
Answer: The TGI was 2.53 µM.

Question: And the GI50 [5]?
Answer: Its GI50 is 10.1 µM.

Question: What about the TGI [5] of the same compound?
Answer: Its TGI is 23.2 µM.

Question: And the GI50 [6]?
Answer: Its GI50 is 0.195 µM.

Question: What about the TGI [6] of the same compound?
Answer: The TGI was 10.8 µM.

Question: What about the GI50 [7] of the same compound?
Answer: The GI50 was 3.25 µM.

Question: What about the TGI [7] of the same compound?
Answer: Its TGI is 10.6 µM.

Question: And the GI50 [8]?
Answer: Its GI50 is 11.7 µM.

Question: And the TGI [8]?
Answer: Its TGI is 24.1 µM.

Question: What about the GI50 [9] of the same compound?
Answer: Its GI50 is 13 µM.

Question: What about the TGI [9] of the same compound?
Answer: The TGI was 25.8 µM.

Question: What about the GI50 [10] of the same compound?
Answer: The GI50 was 8.97 µM.

Question: And the TGI [10]?
Answer: The TGI was 21.5 µM.

Question: And the GI50 [11]?
Answer: The GI50 was 9.2 µM.

Question: And the TGI [11]?
Answer: Its TGI is 21.3 µM.

Question: And the GI50 [12]?
Answer: The GI50 was 0.304 µM.

Question: What about the TGI [12] of the same compound?
Answer: Its TGI is 11.7 µM.

Question: And the GI50 [13]?
Answer: Its GI50 is 10.7 µM.

Question: And the TGI [13]?
Answer: Its TGI is 22.9 µM.

Question: What about the GI50 [14] of the same compound?
Answer: The GI50 was 2.21 µM.

Question: And the TGI [14]?
Answer: Its TGI is 4.44 µM.

Question: And the GI50 [15]?
Answer: The GI50 was 14.7 µM.

Question: And the TGI [15]?
Answer: Its TGI is 28 µM.

Question: And the GI50 [16]?
Answer: Its GI50 is 8.42 µM.

Question: What about the TGI [16] of the same compound?
Answer: The TGI was 21.4 µM.

Question: What about the GI50 [17] of the same compound?
Answer: The GI50 was 3.21 µM.

Question: And the TGI [17]?
Answer: Its TGI is 11.9 µM.

Question: And the GI50 [18]?
Answer: The GI50 was 3.65 µM.

Question: What about the TGI [18] of the same compound?
Answer: The TGI was 13.4 µM.

Question: What about the GI50 [19] of the same compound?
Answer: Its GI50 is 6.09 µM.

Question: And the TGI [19]?
Answer: Its TGI is 20.4 µM.

Question: What about the GI50 [20] of the same compound?
Answer: The GI50 was 4.1 µM.

Question: And the TGI [20]?
Answer: Its TGI is 13.6 µM.

Question: What about the GI50 [21] of the same compound?
Answer: Its GI50 is 2.15 µM.

Question: What about the TGI [21] of the same compound?
Answer: The TGI was 16.2 µM.

Question: What about the GI50 [22] of the same compound?
Answer: Its GI50 is 0.366 µM.

Question: And the TGI [22]?
Answer: Its TGI is 15.8 µM.

Question: What about the GI50 [23] of the same compound?
Answer: The GI50 was 5.59 µM.

Question: And the TGI [23]?
Answer: Its TGI is 20.3 µM.

Question: What about the GI50 [24] of the same compound?
Answer: The GI50 was 0.229 µM.

Question: And the TGI [24]?
Answer: The TGI was 5.03 µM.

Question: What about the GI50 [25] of the same compound?
Answer: The GI50 was 0.318 µM.

Question: What about the TGI [25] of the same compound?
Answer: Its TGI is 7.21 µM.

Question: What about the GI50 [26] of the same compound?
Answer: Its GI50 is 9.89 µM.

Question: And the TGI [26]?
Answer: Its TGI is 22.3 µM.

Question: What about the GI50 [27] of the same compound?
Answer: The GI50 was 10.2 µM.

Question: What about the TGI [27] of the same compound?
Answer: The TGI was 23 µM.

Question: And the GI50 [28]?
Answer: Its GI50 is 2.27 µM.

Question: What about the TGI [28] of the same compound?
Answer: Its TGI is 9.06 µM.

Question: What about the GI50 [29] of the same compound?
Answer: Its GI50 is 0.0487 µM.

Question: What about the TGI [29] of the same compound?
Answer: The TGI was 0.152 µM.

Question: What about the GI50 [30] of the same compound?
Answer: The GI50 was 0.226 µM.

Question: What about the TGI [30] of the same compound?
Answer: The TGI was 1.1 µM.

Question: What about the GI50 [31] of the same compound?
Answer: The GI50 was 10 µM.

Question: And the TGI [31]?
Answer: Its TGI is 22.5 µM.

Question: What about the GI50 [32] of the same compound?
Answer: The GI50 was 17.2 µM.

Question: What about the TGI [32] of the same compound?
Answer: The TGI was 31.1 µM.

Question: And the GI50 [33]?
Answer: The GI50 was 1.71 µM.

Question: What about the TGI [33] of the same compound?
Answer: The TGI was 14.9 µM.

Question: What about the GI50 [34] of the same compound?
Answer: Its GI50 is 3.32 µM.

Question: And the TGI [34]?
Answer: The TGI was 10.1 µM.

Question: What about the GI50 [35] of the same compound?
Answer: The GI50 was 17.5 µM.

Question: And the TGI [35]?
Answer: Its TGI is 31.4 µM.

Question: What about the GI50 [36] of the same compound?
Answer: Its GI50 is 6.74 µM.

Question: And the TGI [36]?
Answer: Its TGI is 19.2 µM.

Question: And the GI50 [37]?
Answer: The GI50 was 7.25 µM.

Question: What about the TGI [37] of the same compound?
Answer: The TGI was 20.3 µM.

Question: What about the GI50 [38] of the same compound?
Answer: The GI50 was 13.6 µM.

Question: What about the TGI [38] of the same compound?
Answer: Its TGI is 26.5 µM.

Question: What about the GI50 [39] of the same compound?
Answer: Its GI50 is 12.5 µM.

Question: What about the TGI [39] of the same compound?
Answer: Its TGI is 25.1 µM.

Question: And the GI50 [40]?
Answer: The GI50 was 7.04 µM.

Question: What about the TGI [40] of the same compound?
Answer: The TGI was 18.7 µM.

Question: What about the GI50 [41] of the same compound?
Answer: Its GI50 is 2.35 µM.

Question: And the TGI [41]?
Answer: Its TGI is 4.06 µM.

Question: What about the GI50 [42] of the same compound?
Answer: Its GI50 is 2.38 µM.

Question: What about the TGI [42] of the same compound?
Answer: The TGI was 8.18 µM.

Question: What about the GI50 [43] of the same compound?
Answer: Its GI50 is 13.6 µM.

Question: What about the TGI [43] of the same compound?
Answer: Its TGI is 26.5 µM.

Question: What about the GI50 [44] of the same compound?
Answer: Its GI50 is 7.09 µM.

Question: What about the TGI [44] of the same compound?
Answer: Its TGI is 19.8 µM.

Question: And the GI50 [45]?
Answer: The GI50 was 8.76 µM.

Question: What about the TGI [45] of the same compound?
Answer: The TGI was 22.3 µM.

Question: What about the GI50 [46] of the same compound?
Answer: The GI50 was 4.41 µM.

Question: And the TGI [46]?
Answer: The TGI was 14.6 µM.

Question: What about the GI50 [47] of the same compound?
Answer: Its GI50 is 7.87 µM.

Question: What about the TGI [47] of the same compound?
Answer: Its TGI is 20.5 µM.

Question: What about the GI50 [48] of the same compound?
Answer: The GI50 was 2.57 µM.

Question: What about the TGI [48] of the same compound?
Answer: Its TGI is 13.1 µM.

Question: And the GI50 [49]?
Answer: The GI50 was 14.6 µM.

Question: And the TGI [49]?
Answer: Its TGI is 27.9 µM.

Question: And the GI50 [50]?
Answer: Its GI50 is 14 µM.

Question: And the TGI [50]?
Answer: Its TGI is 27.2 µM.

Question: What about the GI50 [51] of the same compound?
Answer: The GI50 was 14.1 µM.

Question: And the TGI [51]?
Answer: The TGI was 27.2 µM.

Question: And the GI50 [52]?
Answer: Its GI50 is 6.62 µM.

Question: What about the TGI [52] of the same compound?
Answer: The TGI was 19.2 µM.

Question: What about the GI50 [53] of the same compound?
Answer: The GI50 was 0.0271 µM.

Question: And the TGI [53]?
Answer: The TGI was 0.0996 µM.

Question: What about the GI50 [54] of the same compound?
Answer: The GI50 was 14.7 µM.

Question: What about the TGI [54] of the same compound?
Answer: Its TGI is 28 µM.

Question: What about the GI50 [55] of the same compound?
Answer: The GI50 was 8.29 µM.

Question: What about the TGI [55] of the same compound?
Answer: The TGI was 20.8 µM.

Question: And the GI50 [56]?
Answer: Its GI50 is 8.04 µM.

Question: What about the TGI [56] of the same compound?
Answer: Its TGI is 20.8 µM.

Question: What about the GI50 [57] of the same compound?
Answer: The GI50 was 12.2 µM.

Question: What about the TGI [57] of the same compound?
Answer: Its TGI is 24.7 µM.

Question: What about the GI50 [58] of the same compound?
Answer: The GI50 was 0.556 µM.

Question: And the TGI [58]?
Answer: The TGI was 2.4 µM.

Question: What about the GI50 [59] of the same compound?
Answer: Its GI50 is 0.1 µM.

Question: And the TGI [59]?
Answer: Its TGI is 1.86 µM.

Question: And the GI50 [60]?
Answer: Its GI50 is 0.461 µM.

Question: What about the TGI [60] of the same compound?
Answer: The TGI was 2.52 µM.
